Active and inactive are the calls of the source. No cut-off for these calls is given here. Some results are limits rather than exact numbers.

A word on the GI50: it is the concentration giving 50% growth inhibition. As a reminder, the EC50 is the concentration giving half of the maximal effect.

A short description of assay [1]: Growth inhibition of human BSY1 cells after 48 hrs by Sulforhodamine B assay. The conditions noted are these: BSY-1, 48 h, read-out: GI50. The format is functional. Background: The SRB assay estimates cell density from bound dye.
Assay [2] can be described thus: Induction of golgi disassembly in human HBC4 cells assessed as presence of GBF1 in cytoplasm after 1 hr by immunofluorescence microscopy. The class given is functional, cell-based.
Assay [3] deals with BSY-1. Kind of assay: Induction of golgi disassembly in human BSY1 cells assessed as presence of GBF1 in cytoplasm at 1 uM after 1 hr by immunofluorescence microscopy. The format is functional, cell-based.
Assay [4] is described as follows: Growth inhibition of human HBC4 cells after 48 hrs by Sulforhodamine B assay. The class given is functional. The conditions noted are these: Homo sapiens, HBC4, 48 h; read-out: GI50.
Assay [5] in a line: Induction of golgi disassembly in human BSY1 cells assessed as presence of GBF1 in cytoplasm after 1 hr by immunofluorescence microscopy. The class given is functional, cell-based. The conditions noted are these: bsy-1.
For assay [6], the system named is HBC4. As to the kind of experiment: Induction of golgi disassembly in human HBC4 cells assessed as presence of GBF1 in cytoplasm at 10 uM after 1 hr by immunofluorescence microscopy. The format is functional, cell-based.
Assay [7] concerns BSY-1. Kind of assay: Induction of golgi disassembly in human BSY1 cells assessed as presence of GBF1 in cytoplasm at 1 to 100 nM after 1 hr by immunofluorescence microscopy. The format is functional, cell-based.
For assay [8], the system named is HBC4. Kind of assay: Induction of golgi disassembly in human HBC4 cells assessed as presence of GBF1 in cytoplasm at 1 to 100 nM after 1 hr by immunofluorescence microscopy. The format is functional, cell-based.

As for `C[C@@H]1[C@@H](O)[C@H](C)C[C@@H]2C=C[C@H](C)[C@H](/C=C/C(=O)NCc3cccnc3)[C@@H]12`, the GI50 in assay [1] and in assay [4] was > 10 µM each time. In addition, the EC50 in assay [2] and in assay [5] was > 10 µM throughout. In addition, the outcome in assay [3] and in assay [6] was inactive.

`C/C(=C\C=C\[C@@H]1[C@H]2[C@H](C)[C@@H](O)[C@H](C)C[C@@H]2C=C[C@@H]1C)C(=O)NCc1cccnc1` (stereo in doubt; form 2): the outcome in assay [7] and in assay [8] was Active.
